Reference: patent US9175024B2, “Platinum compound having amino or alkylamino-containing succinic acid derivatives as leaving group, preparation method thereof, and use thereof” (BEIJING FSWELCOME TECHNOLOGY DEVELOPMENT CO., LTD., priority 2011, dated 2015)
Where “and” joins values, the source holds several entries; their conditions need not be identical. Equal entries are not always repeated.

Legend:
[1] = test system: Colon cancer SW480; assay: MTT cytotoxicity, colon cancer SW480; format: cell-based; settings: n = 6, Colon cancer SW480
Protocol: (§1) Several kinds of tumor cells in exponential growth phase were prepared into single cell suspension, inoculated on 96 pore plat at the density of 4×10^4/hole, cultivated for 24 hours to enable to adhere to wall with 1640 culture medium containing 10% fetal calf serum (complete medium) at 37° C.; the final culture volume was 100 μl. Cell morphology was observed after culture for 24 hours.

[2] = test system: normal mice; assay: Acute toxic effect of platinum complex on normal mice (LD50, single intravenous administration); format: in vivo, Kunming mice; settings: single intravenous administration in 5% glucose solution, 14 days observation, Bliss method
Protocol: (§2) Kunming mice at 4˜6 weeks old and at the weight of 18˜22 g were taken, 50% male and 50% female. Embodiment platinum compound was dissolved with 5% glucose solution. […] Mortality and toxicity were observed after administration, totally observing 14 days, LD50 value was calculated with Bliss method according to mortality.

[3] = test system: Lung cancer H292; assay: MTT cytotoxicity, lung cancer H292; format: cell-based; settings: n = 6, Lung cancer H292
Protocol: as §1

[4] = test system: colon cancer SW480; assay: In vivo antitumor activity, colon cancer SW480 in nude mice; settings: SW480 in male nude mice, once a week, 4 times, tumor weighed after 4 weeks
From the text: The calculation formula of tumor inhabitation rate is: […]

[5] = test system: Lewis lung cancer; assay: MTT cytotoxicity, Lewis lung cancer; format: cell-based; settings: n = 6, Lewis lung cancer
Protocol: as §1

[6] = test system: Pulmonary epithelial cell BEAS-2B; assay: MTT cytotoxicity, pulmonary epithelial cell BEAS-2B; format: cell-based; settings: n = 6, Pulmonary epithelial cell BEAS-2B
Protocol: as §1

[7] = test system: Gastric cancer MGC803; assay: MTT cytotoxicity, gastric cancer MGC803; format: cell-based; settings: n = 6, Gastric cancer MGC803
Protocol: as §1

[8] = test system: Breast cancer MCF-7 Cisplatin resistance strain; assay: MTT cytotoxicity, breast cancer MCF-7 cisplatin resistance strain; format: cell-based; settings: n = 6, Breast cancer MCF-7 Cisplatin resistance strain
Protocol: as §1

[9] = test system: Breast cancer MCF-7; assay: MTT cytotoxicity, breast cancer MCF-7; format: cell-based; settings: n = 6, Breast cancer MCF-7
Protocol: as §1

[10] = test system: Testis cell ST; assay: MTT cytotoxicity, testis cell ST; format: cell-based; settings: n = 6, Testis cell ST
Protocol: as §1

[11] = test system: Lung cancer A549; assay: MTT cytotoxicity, lung cancer A549; format: cell-based; settings: n = 6, Lung cancer A549
Protocol: as §1

[12] = test system: Esophagus cancer ECA109; assay: MTT cytotoxicity, esophagus cancer ECA109; format: cell-based; settings: n = 6, Esophagus cancer ECA109
Protocol: as §1

[13] = test system: breast cancer MCF-7; assay: In vivo antitumor activity, breast cancer MCF-7 in nude mice; settings: MCF-7 in female nude mice, 30 mg (platinum)/kg, once a week, 4 times, tumor weighed 4 weeks later
[14] = Acute toxic effect of platinum complex on normal mice (LD50, single intravenous administration); format: in vivo, Kunming mice; settings: both sexes, Kunming, mouse, in vivo; single intravenous administration in 5% glucose solution, 14 days observation, Bliss method
Protocol: as §2

[15] = physchem; settings: water

| Compound | IC50 [1] | LD50 value [2] | IC50 [3] | Tumor inhibition rate (x ± SD) ([4]; 10 mg (platinum)/kg) | IC50 [5] | IC50 [6] | IC50 [7] | IC50 [8] | IC50 [9] | IC50 [10] | IC50 [11] | IC50 [12] | Tumor inhibition rate (x ± SD) ([4]; 30 mg (platinum)/kg) | Tumor inhibition rate (x ± SD) [13] | LD50 at 14 days [14] | solubility [15] |
| --- | --- | --- | --- | --- | --- | --- | --- | --- | --- | --- | --- | --- | --- | --- | --- | --- |
| NCCC(CC(=O)[O-])C(=O)[O-].N[C@@H]1CCCC[C@H]1N.[Pt+2] (relative stereo) [Compound 9, [2-(2-aminoethyl)-succinato].[Cis-(1,2-trans-cyclohexyldiamine)]platinum (II)] | 62 µM | 0.429 mmol/kg | 26 µM | 44.8 ± 10.8% | 84 µM | 17 µM | – | – | – | – | – | – | – | – | – | – |
| NC1CCCCC1N.O=C([O-])CC(CCCN1CCCCC1)C(=O)[O-].[Pt+2] (racemic) [Compound 13, [2-(3-(1-piperidyl)propyl)-succinato].[Cis-(1,2-trans-cyclohexyldiamine)]platinum (II)] | 95 µM | 0.542 mmol/kg | 57 µM | 56.3 ± 6.81% | 32 µM | 12 µM | – | – | – | – | – | – | – | – | – | – |
| CC(=O)NC(CC(=O)[O-])C(=O)[O-].NC1CCCCC1N.[Pt+2] (centres unmarked) [Contrast Embodiment 1, reference compound] | 615 µM | 0.092 mmol/kg | 253 µM and 353 µM and 365 µM | – | 545 µM | 433 µM | 525 µM | 425 µM | 632 µM | 239 µM | 436 µM | 467 µM | – | – | – | – |
| CCN(CC)CCC(CC(=O)[O-])C(=O)[O-].NC1CCCCC1N.[Pt+2] (racemic) [Compound 10, [2-(2-diethyl amino ethyl)-succinato].[Cis-(1,2-trans-cyclohexyldiamine)]platinum (II)] | 5 µM | 0.595 mmol/kg | 24 µM | 55.1 ± 9.07% | 28 µM | 25 µM | – | – | – | – | – | – | – | – | – | – |
| NC(CC(=O)[O-])C(=O)[O-].NC1CCCCC1N.[Pt+2] (racemic) [ADP, [DL-2-amino-succinato].[trans-hexamethylenediamine]platinum (II), reference compound] | 98 µM | 0.332 mmol/kg | 61 µM | – | 162 µM | 107 µM | 160 µM | 156 µM | 73 µM | 187 µM | 145 µM | 98 µM and 163 µM | 45.3 ± 11.21% | 68.3 ± 10.27 9% | – | – |
| CCNCCC1CC(=O)[O][Pt]2([NH]C3CCCCC3[NH]2)[O]C1=O (stereo not drawn) [Compound 12, [2-(2-ethylamino ethyl)-succinato].[Cis-(1,2-trans-cyclohexyldiamine)]platinum (II)] | 72 µM | 0.602 mmol/kg | 61 µM | 46.8 ± 9.17% | 69 µM | 57 µM | – | – | – | – | – | – | – | – | – | – |
| CN(C)CCC1CC(=O)[O][Pt]([NH2])([NH2])[O]C1=O (stereo not drawn) [Compound 2, [2-(2-dimethylaminoethyl)-succinato].[Cis-diamine]platinum (II)] | – | – | – | – | – | – | – | – | – | – | – | – | – | – | 511 µmol/kg | 176 mg/mL |
| CN(C)CCCC1CC(=O)[O][Pt]2([NH]C3CCCCC3[NH]2)[O]C1=O (stereo not drawn) [Compound 11, [2-(3-dimethylamino propyl)-succinato].[Cis-(1,2-trans-cyclohexyldiamine)]platinum (II)] | 22 µM | 0.571 mmol/kg | 13 µM | 46.3 ± 9.88% | 51 µM | 45 µM | – | – | – | – | – | – | – | – | – | – |
